Test results as given in patent US12172975B2, “1H-indazole carboxamides as receptor-interacting protein kinase 1 inhibitors (RIPK1)” (BRISTOL-MYERS SQUIBB COMPANY, priority 2018, dated 2024).
Like-named read-outs stand apart in the source and are kept apart here.

Key:
[1] = target: His-GST-TVMV-hRIPK1 (1-324) (Homo sapiens (Human), UniProt Q13546); experiment: RIPK1 HTRF Binding Assay; details: read-out: RIPK1 HTRF (IC50); FRET probe displacement, 1 h at rt
[2] = tested on: MLKL phosphorylation in HT29-L23 human colorectal adenocarcinoma cells; experiment: MLKL Phosphorylation High-Content Assay; assay type: cell-based; details: 6 h, necroptosis induced with TNFα, SMAC mimetic and Z-VAD, read-out: pMLKL (IC50)
Description: MLKL Phosphorylation High-Content Assay
HT29-L23 human colorectal adenocarcinoma cells were maintained in RPMI 1640 medium containing 10% heat-inactivated FBS, 1% Penicillin-Streptomycin and 10 mM HEPES. Cells were seeded at 2,000 cells/well in 384 well tissue culture-treated microplates (Greiner #781090-3B) and incubated at 37° C. (5% CO2/95% O2) for 2 d. […] (5% CO2/95% O2). Necroptopsis was induced using a mixture of human TNFα (35 ng/mL) (Peprotech #300-01A), SMAC mimetic (from US 2015/0322111 A1) (700 nM) and Z-VAD ([…]) (BD pharmingen #51-6936). Following 6 h incubation at 37° C. (5% CO2/95% O2), the cells were fixed with 4% formaldehyde (ACROS 11969-0010) for 15 min at rt, then permeabilized with phosphate buffered saline (PBS) containing 0.2% Triton-X-100 for 10 min. MLKL phosphorylation was detected using anti-MLKL (phospho S358) antibody (Abeam #ab 187091) (1:1000 dilution in Blocking Buffer [PBS supplemented with 0.1% BSA]) with ON incubation at 4° C. After washing three times in PBS, goat anti-rabbit Alexa-488 (1:1000 dilution) (Life Technologies, A11008) and Hoechst 33342 (Life Technologies, H3570) (1:2000 dilution) in Blocking Buffer were added for 1 h at rt.
Following another three cycles of washes in PBS, the microplates were sealed, and cellular images were acquired in the Cellomics ArrayScan VTI high-content imager equipped with an X1 camera. Fluorescent images were taken using a 10× objective and the 386-23 BGRFRN_BGRFRN and 485-20 BGRFRN_BGRFRN filter sets, for nuclei and MLKL phosphorylation, respectively. The image sets were analyzed using the Compartmental Analysis Bioapplication software (Cellomics). The level of MLKL phosphorylation was quantified as MEAN_CircRingAvglntenRatio. The maximal inhibitory response was defined by the activity induced by Neels (CAS #: 852391-15-2, 6.25 μM). […] The data were fitted using the 4-parameter logistic equation to calculate the IC50 and Ymax values.

His-GST-TVMV-hRIPK1 (1-324), sequence (Q13546 1-324): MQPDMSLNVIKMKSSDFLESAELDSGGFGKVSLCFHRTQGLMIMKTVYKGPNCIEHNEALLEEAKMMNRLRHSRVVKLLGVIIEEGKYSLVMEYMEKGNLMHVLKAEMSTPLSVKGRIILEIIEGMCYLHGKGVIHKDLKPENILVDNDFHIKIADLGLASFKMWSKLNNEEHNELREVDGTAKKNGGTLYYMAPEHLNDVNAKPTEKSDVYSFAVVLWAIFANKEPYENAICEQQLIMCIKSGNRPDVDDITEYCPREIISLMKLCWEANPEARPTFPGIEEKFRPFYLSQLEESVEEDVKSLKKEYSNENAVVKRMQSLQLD

Row | Compound | IC50 [1] [µM] | IC50 ([2]; Homo sapiens) [µM] | IC50 [2] [µM]
1 | CNC(=O)c1n[nH]c2cc(-c3cnc(OC)c(C(=O)NC(C)c4ccccc4OC(F)(F)F)c3)ccc12 (single isomer, unassigned) [Example 15, 6-(6-methoxyd3-5-((1-(2-(trifluoromethoxy)phenyl)ethyl)carbamoyl)pyridin-3-yl)-N-methyl-1H-indazole-3-carboxamide] | 0.005 | – | –
2 | CNC(=O)c1n[nH]c2cc(-c3cnc(OC)c(C(=O)NC4CCCC(NC(=O)C(C)(C)C)C4)c3)ccc12 (single isomer, unassigned) [Example 17, 6-(6-methoxy-5-((3-pivalamidocyclohexyl)carbamoyl)pyridin-3-yl)-N-methyl-1H-indazole-3-carboxamide] | 0.021 | 0.019 | –
3 | CNC(=O)c1n[nH]c2cc(-c3cnc(C)c(C(=O)NC(C)c4cccc(OC(F)(F)F)c4)c3)ccc12 (single isomer, unassigned) [Example 155, N-methyl-6-[6-methyl-5-({1-[3-(tri-fluoromethoxy)phenyl]ethyl}car-bamoyl)pyridin-3-yl]-1H-indazole-3-carboxamide] | 0.013 | – | 0.022
4 | CNC(=O)c1n[nH]c2cc(-c3cnc(C)c(C(=O)NC(C)c4cccc(OC(F)(F)F)c4)c3)ccc12 (single isomer, unassigned) [Example 156, N-methyl-6-[6-methyl-5-({1-[3-(tri-fluoromethoxy)phenyl]ethyl}car-bamoyl)pyridin-3-yl]-1H-indazole-3-carboxamide] | 0.0037 | – | 0.0079
5 | CNC(=O)c1n[nH]c2cc(-c3cc(C(=O)NC(C)c4cccc(OC(F)(F)F)c4)c(C)nc3C)ccc12 (single isomer, unassigned) [Example 163, 6-[2,6-dimethyl-5-({1-[3-(trifluoromethoxy)phenyl]-ethyl}carbamoyl)pyridin-3-yl]-N-methyl-1H-indazole-3-carboxamide] | 0.047 | – | 0.18
6 | CNC(=O)c1n[nH]c2cc(-c3cc(C(=O)NC(C)c4cccc(OC(F)(F)F)c4)c(C)nc3C)ccc12 (single isomer, unassigned) [Example 164, 6-[2,6-dimethyl-5-({1-[3-(trifluoromethoxy)phenyl]-ethyl}carbamoyl)pyridin-3-yl]-N-methyl-1H-indazole-3-carboxamide] | 0.0054 | – | 0.0037
7 | CNC(=O)c1n[nH]c2cc(-c3cnc(OC)c(C(=O)N[C@H](C)CC(=O)OC(C)(C)C)c3)ccc12 [Example 141, tert-butyl (3R)-3-({2-methoxy-5-[3-(methylcarbamoyl)-1H-indazol-6-yl]pyridin-3-yl}-formamido)butanoate] | – | 0.041 | –
8 | CNC(=O)c1n[nH]c2cc(-c3cnc(OC)c(C(=O)NCCCC(=O)N(CC4CC4)C4CC4)c3)ccc12 [Example 142, 6-[5-({3-[cyclopropyl(cyclo-propylmethyl)carbamoyl]-propyl}carbamoyl)-6-meth-oxypyridin-3-yl]-N-methyl-1H-indazole-3-carboxamide] | – | 0.12 | –
9 | CNC(=O)c1n[nH]c2cc(-c3cnc(OC)c(C(=O)NCC(C)(C)C(=O)OC(C)(C)C)c3)cc(F)c12 [Example 144, tert-butyl 3-({5-[4-fluoro-3-(methylcarbamoyl)-1H-indazol-6-yl]-2-methoxy-pyridin-3-yl}formamido)-2,2-dimethylpropanoate] | – | 0.1 | –
10 | CNC(=O)c1n[nH]c2cc(-c3cnc(OC)c(C(=O)NC(C)c4cccc(OC(F)(F)F)c4)c3)cc(F)c12 (centres unmarked) [Example 147, 4-fluoro-6-[6-methoxy-5-({1-[3-(trifluoromethoxy)-phenyl]ethyl}carbamoyl)-pyridin-3-yl]-N-methyl-1H-indazole-3-carboxamide] | – | 0.11 | –
11 | CNC(=O)c1n[nH]c2cc(-c3cc(C(=O)NCc4cc(OC(F)(F)F)ccc4F)c(OC)nc3C)ccc12 [Example 161, 6-[5-({[2-fluoro-5-(tri-fluoromethoxy)phenyl]-methyl}carbamoyl)-6-methoxy-2-methylpyridin-3-yl]-N-methyl-1H-indazole-3-carboxamide] | – | 0.074 | –
12 | COc1ncc(-c2ccc3c(C(=O)N[C@H](C)C4CC4)n[nH]c3c2)cc1C(=O)NCc1ccccc1OC(F)(F)F [Example 171, N-[(1R)-1-cyclopropylethyl]-6-[6-methoxy-5-({[2-(trifluoro-methoxy)phenyl]methyl}-carbamoyl)pyridin-3-yl]-1H-indazole-3-carboxamide] | – | 0.12 | –
13 | COc1ncc(-c2ccc3c(C(=O)NC4CC4)n[nH]c3c2)cc1C(=O)NCc1ccccc1OC(F)(F)F [Example 174, N-cyclopropyl-6-[6-methoxy-5-({[2-(trifluoromethoxy)phenyl]-methyl}carbamoyl)pyridin-3-yl]-1H-indazole-3-carboxamide] | – | 0.014 | –
14 | COc1ncc(-c2ccc3c(C(=O)NCC(F)(F)F)n[nH]c3c2)cc1C(=O)NCc1ccccc1OC(F)(F)F [Example 178] | – | 0.12 | –
15 | COc1ncc(-c2ccc3c(C(=O)NC(C)C)n[nH]c3c2)cc1C(=O)NCc1ccccc1OC(F)(F)F [Example 179, 6-[6-methoxy-5-({[2-(trifluoro-methoxy)phenyl]methyl}carbam-oyl)pyridin-3-yl]-N-(propan-2-yl)-1H-indazole-3-carboxamide] | – | 0.073 | –
16 | [2H]C([2H])([2H])Oc1ncc(-c2ccc3c(C(=O)NC4CC4)n[nH]c3c2)cc1C(=O)NC(C)c1cccc(OC(F)(F)F)c1 (centres unmarked) [Example 197, N-cyclopropyl-6-[6-(deutero)-methoxy-5-({1-[3-(trifluorometh-oxy)phenyl]ethyl}carbamoyl)-pyridin-3-yl]-1H-indazole-3-carboxamide] | – | 0.052 | –
17 | [2H]C([2H])([2H])Oc1ncc(-c2ccc3c(C(=O)NC4CC4)n[nH]c3c2)cc1C(=O)N[C@@H](C)c1cccc(C(F)(F)F)c1 [Example 211, N-cyclopropyl-6-[6-(deutero)-methoxy-5-{[(1S)-1-[3-(trifluoro-methyl)phenyl]ethyl]carbamoyl}-pyridin-3-yl]-1H-indazole-3-carboxamide] | – | 0.027 | –
18 | [2H]C([2H])([2H])NC(=O)c1n[nH]c2cc(-c3cnc(OC([2H])([2H])[2H])c(C(=O)N[C@@H](C)c4cc(C(F)(F)F)ccc4F)c3)ccc12 [Example 213, 6-(5-{[(1S)-1-[2-fluoro-5-(trifluoro-methyl)phenyl]ethyl]carbamoyl}-6-(deutero)methoxypyridin-3-yl)-N-(deutero)methyl-1H-indazole-3-carboxamide] | – | 0.021 | –
19 | CNC(=O)c1n[nH]c2cc(-c3cnc(OC)c(C(=O)N[C@H](C)c4cc(OC(F)(F)F)ccc4F)c3)ccc12 [Example 216, 6-(5-{[(1R)-1-[2-fluoro-5-(trifluoro-methoxy)phenyl](2,2,2-deutero)-ethyl]carbamoyl}-6-(deutero)meth-oxypyridin-3-yl)-N-(deutero)methyl-1H-indazole-3-carboxamide] | – | – | 0.03
20 | [2H]C([2H])([2H])NC(=O)c1n[nH]c2cc(-c3cnc(OC([2H])([2H])[2H])c(C(=O)N[C@H](C)c4cc(OC(F)(F)F)ccc4F)c3)ccc12 [Example 218, 6-(5-{[(1R)-1-[2-fluoro-5-(trifluoro-methoxy)phenyl]ethyl]carbamoyl}-6-(deutero)methoxypyridin-3-yl)-N-(deutero)methyl-1H-indazole-3-carboxamide] | – | 0.032 | –
21 | [2H]C([2H])([2H])NC(=O)c1n[nH]c2cc(-c3cnc(OC([2H])([2H])[2H])c(C(=O)N[C@H](C)c4ccccc4C(F)(F)F)c3)ccc12 [Example 219, 6-[6-(deutero)methoxy-5-{[(1R)-1-[2-(trifluoromethyl)phenyl]ethyl]-carbamoyl}pyridin-3-yl]-N-(deutero)-methyl-1H-indazole-3-carboxamide] | – | 0.018 | –
22 | [2H]C([2H])([2H])NC(=O)c1n[nH]c2cc(-c3cnc(OC([2H])([2H])[2H])c(C(=O)N[C@@H](C)c4cccc(OC(F)(F)F)c4)c3)ccc12 [Example 220, 6-[6-(deutero)methoxy-5-{[(1S)-1-[3-(trifluoromethoxy)phenyl]ethyl]-carbamoyl}pyridin-3-yl]-N-(deutero)-methyl-1H-indazole-3-carboxamide] | – | 0.1 | –
23 | CNC(=O)c1n[nH]c2cc(-c3cnc(OC)c(C(=O)N[C@@H](C)c4cc(OC(F)(F)F)ccc4F)c3)ccc12 [Example 222] | – | – | 0.014
24 | N-[(1,1,2,2,2-deutero)ethyl]-6-(5- {[(1R)-1-[2-fluoro-5-(trifluoro- methyl)phenyl]ethyl]carbamoyl}-6- (deutero)methoxypyridin-3-yl)-1H- indazole-3-carboxamide [Example 227] | – | – | 0.069
